{"source": "patent US12522597B2", "about": "“Methods and compositions for modulating splicing” (Skyhawk Therapeutics, Inc., priority 2019, dated 2026)", "key": {"mHTT protein": {"tested_on": "mHTT protein", "experiment": "mHTT protein assay (2B7-MW1, Mesoscale Discovery)", "type": "cell-based, human", "conditions": "GM04724 (CAG 70/20) Huntington's disease patient lymphoblast cells, 48 hours, 2B7-MW1 MSD; read-out: HTT Potency - Protein EC50 mHTT (average)", "procedure": "Compounds are tested on GM04724 (CAG 70/20) Huntington's disease patient lymphoblast cells at doses ranging from 10 μM to 0.6 nM. 4,500 cells/well are seeded in 384 well plates. One plate replica is carried out for parallel viability testing by CellTiter Glo (CTG). Compounds are incubated for 48 hours, mHTT protein levels are assessed by the 2B7-MW1 assay via Mesoscale Discovery (MSD) as previously reported (Macdonald et al., 2014). The antibody pair is comprised of previously characterized monoclonals (2B7 and MW1) interrogating two regions for HTT conformation and biological properties: the N17 domain and the polyQ domain (Baldo et al., 2012; Ko et., 2001). 2B7-MW1 is dependent on subject/animal specific levels of HTT at the time of treatment. 2B7-MW1 is dependent on polyQ expansion (e.g., the higher the expansion the higher the signal) and on mHTT size (e.g., a similar polyQ will give higher signal with smaller HTT size). The viability readout is carried out by CTG according to the manufacturer's instructions."}, "[1]": {"tested_on": "MDR1-MDCK cell monolayers", "experiment": "MDCK-MDR1 permeability assay (BBB penetration potential)", "type": "in vitro ADME", "conditions": "dog, MDCK-MDR1, 120 min, 5 μM, pH 7.4", "procedure": "(§1) Each determination is performed in duplicate. […] Analytical conditions are outlined below."}, "MDR1": {"tested_on": "MDR1", "experiment": "MDCK-MDR1 permeability assay (BBB penetration potential)", "type": "in vitro ADME", "conditions": "dog; for efflux ratio at 120 min, 5 μM: MDCK-MDR1, pH 7.4, MDCK-MDR1: Efflux; for Papp A→B at 120 min, 5 μM: MDCK-MDR1, pH 7.4, MDCK-MDR1: Papp A-B; for Papp B→A at 120 min, 5 μM: MDCK-MDR1, pH 7.4, MDCK-MDR1: Papp B-A", "procedure": "as §1"}}, "data": [{"smiles": "Cc1nnc(-c2ccc(-c3ccc(O[C@H]4C[C@@H]5CCC[C@@H](N5)[C@H]4F)nn3)c(O)c2)s1", "note": "(single isomer, unassigned) [95-ENT2]", "values": [{"measurement": "EC50", "setting": "mHTT protein", "result": "101 to 500", "unit": "nM"}, {"measurement": "MDCK-MDR1: % Recov A-B", "setting": "[1]", "result": 78, "unit": "%"}, {"measurement": "MDCK-MDR1: % Recov B-A", "setting": "[1]", "result": 87, "unit": "%"}, {"measurement": "efflux ratio at 120 min, 5 μM", "setting": "MDR1", "result": 9}, {"measurement": "Papp A→B at 120 min, 5 μM", "setting": "MDR1", "result": 3.59, "unit": "×10⁻⁶ cm/s"}, {"measurement": "Papp B→A at 120 min, 5 μM", "setting": "MDR1", "result": 33.1, "unit": "×10⁻⁶ cm/s"}]}, {"smiles": "Oc1cc(-c2ccc3cncn3c2)ccc1-c1ccc(O[C@@H]2C[C@H]3CCC[C@H](N3)[C@@H]2F)nn1", "note": "(single isomer, unassigned) [85-ENT1]", "values": [{"measurement": "EC50", "setting": "mHTT protein", "result": "101 to 500", "unit": "nM"}, {"measurement": "MDCK-MDR1: % Recov A-B", "setting": "[1]", "result": 33, "unit": "%"}, {"measurement": "MDCK-MDR1: % Recov B-A", "setting": "[1]", "result": 66, "unit": "%"}, {"measurement": "efflux ratio at 120 min, 5 μM", "setting": "MDR1", "result": 6}, {"measurement": "Papp A→B at 120 min, 5 μM", "setting": "MDR1", "result": 2.12, "unit": "×10⁻⁶ cm/s"}, {"measurement": "Papp B→A at 120 min, 5 μM", "setting": "MDR1", "result": 12.1, "unit": "×10⁻⁶ cm/s"}]}, {"smiles": "O=c1cc(-c2cc(O)c(-c3ccc(O[C@@H]4C[C@H]5CCC[C@H](N5)[C@@H]4F)nn3)cc2F)cc[nH]1", "note": "(single isomer, unassigned) [57-ENT1]", "values": [{"measurement": "EC50", "setting": "mHTT protein", "result": "101 to 500", "unit": "nM"}, {"measurement": "MDCK-MDR1: % Recov A-B", "setting": "[1]", "result": 94, "unit": "%"}, {"measurement": "MDCK-MDR1: % Recov B-A", "setting": "[1]", "result": 101, "unit": "%"}, {"measurement": "efflux ratio at 120 min, 5 μM", "setting": "MDR1", "result": 73}, {"measurement": "Papp A→B at 120 min, 5 μM", "setting": "MDR1", "result": 0.26, "unit": "×10⁻⁶ cm/s"}, {"measurement": "Papp B→A at 120 min, 5 μM", "setting": "MDR1", "result": 18.9, "unit": "×10⁻⁶ cm/s"}]}, {"smiles": "N#Cc1ccc(-c2ccc(O[C@@H]3C[C@H]4CCC[C@H](N4)[C@@H]3F)nn2)c(O)c1", "note": "(single isomer, unassigned) [110-ENT1]", "values": [{"measurement": "EC50", "setting": "mHTT protein", "result": "501 to 10000", "unit": "nM"}, {"measurement": "MDCK-MDR1: % Recov A-B", "setting": "[1]", "result": 101, "unit": "%"}, {"measurement": "MDCK-MDR1: % Recov B-A", "setting": "[1]", "result": 100, "unit": "%"}, {"measurement": "efflux ratio at 120 min, 5 μM", "setting": "MDR1", "result": 13}, {"measurement": "Papp A→B at 120 min, 5 μM", "setting": "MDR1", "result": 5.37, "unit": "×10⁻⁶ cm/s"}, {"measurement": "Papp B→A at 120 min, 5 μM", "setting": "MDR1", "result": 68.2, "unit": "×10⁻⁶ cm/s"}]}, {"smiles": "Oc1cc(-c2ccnnc2)ccc1-c1ccc(O[C@@H]2C[C@H]3CCC[C@H](N3)[C@@H]2F)nn1", "note": "(single isomer, unassigned) [87-ENT1]", "values": [{"measurement": "EC50", "setting": "mHTT protein", "result": "101 to 500", "unit": "nM"}, {"measurement": "MDCK-MDR1: % Recov A-B", "setting": "[1]", "result": 92, "unit": "%"}, {"measurement": "MDCK-MDR1: % Recov B-A", "setting": "[1]", "result": 100, "unit": "%"}, {"measurement": "efflux ratio at 120 min, 5 μM", "setting": "MDR1", "result": 20}, {"measurement": "Papp A→B at 120 min, 5 μM", "setting": "MDR1", "result": 2.75, "unit": "×10⁻⁶ cm/s"}, {"measurement": "Papp B→A at 120 min, 5 μM", "setting": "MDR1", "result": 55.8, "unit": "×10⁻⁶ cm/s"}]}, {"smiles": "Oc1cc2nccnc2cc1-c1ccc(O[C@H]2C[C@@H]3CCC[C@@H](N3)[C@H]2F)nn1", "note": "(single isomer, unassigned) [104-ENT2]", "values": [{"measurement": "EC50", "setting": "mHTT protein", "result": "501 to 10000", "unit": "nM"}, {"measurement": "MDCK-MDR1: % Recov A-B", "setting": "[1]", "result": 93, "unit": "%"}, {"measurement": "MDCK-MDR1: % Recov B-A", "setting": "[1]", "result": 99, "unit": "%"}, {"measurement": "efflux ratio at 120 min, 5 μM", "setting": "MDR1", "result": 5}, {"measurement": "Papp A→B at 120 min, 5 μM", "setting": "MDR1", "result": 10.1, "unit": "×10⁻⁶ cm/s"}, {"measurement": "Papp B→A at 120 min, 5 μM", "setting": "MDR1", "result": 53.6, "unit": "×10⁻⁶ cm/s"}]}, {"smiles": "Oc1cc(-c2cc[nH]n2)ccc1-c1ccc(O[C@@H]2C[C@H]3CCC[C@H](N3)[C@@H]2F)nn1", "note": "(single isomer, unassigned) [66-ENT1]", "values": [{"measurement": "EC50", "setting": "mHTT protein", "result": "51 to 100", "unit": "nM"}, {"measurement": "MDCK-MDR1: % Recov A-B", "setting": "[1]", "result": 79, "unit": "%"}, {"measurement": "MDCK-MDR1: % Recov B-A", "setting": "[1]", "result": 80, "unit": "%"}, {"measurement": "efflux ratio at 120 min, 5 μM", "setting": "MDR1", "result": 11}, {"measurement": "Papp A→B at 120 min, 5 μM", "setting": "MDR1", "result": 0.93, "unit": "×10⁻⁶ cm/s"}, {"measurement": "Papp B→A at 120 min, 5 μM", "setting": "MDR1", "result": 10.1, "unit": "×10⁻⁶ cm/s"}]}, {"smiles": "N#Cc1ccc(-c2ccc(O[C@H]3C[C@@H]4CC[C@@H](N4)[C@H]3F)nn2)c(O)c1", "note": "(single isomer, unassigned) [111-ENT2]", "values": [{"measurement": "EC50", "setting": "mHTT protein", "result": "501 to 10000", "unit": "nM"}, {"measurement": "MDCK-MDR1: % Recov A-B", "setting": "[1]", "result": 92, "unit": "%"}, {"measurement": "MDCK-MDR1: % Recov B-A", "setting": "[1]", "result": 96, "unit": "%"}, {"measurement": "efflux ratio at 120 min, 5 μM", "setting": "MDR1", "result": 4}, {"measurement": "Papp A→B at 120 min, 5 μM", "setting": "MDR1", "result": 14.4, "unit": "×10⁻⁶ cm/s"}, {"measurement": "Papp B→A at 120 min, 5 μM", "setting": "MDR1", "result": 58.7, "unit": "×10⁻⁶ cm/s"}]}, {"smiles": "Cn1ccc(=O)c2cc(-c3ccc(O[C@H]4C[C@]5(C)CCC[C@@](C)(N5)[C@H]4F)nn3)c(O)cc21", "note": "(single isomer, unassigned) [131-ENT1]", "values": [{"measurement": "EC50", "setting": "mHTT protein", "result": "501 to 10000", "unit": "nM"}, {"measurement": "MDCK-MDR1: % Recov A-B", "setting": "[1]", "result": 95, "unit": "%"}, {"measurement": "MDCK-MDR1: % Recov B-A", "setting": "[1]", "result": 99, "unit": "%"}, {"measurement": "efflux ratio at 120 min, 5 μM", "setting": "MDR1", "result": 70}, {"measurement": "Papp A→B at 120 min, 5 μM", "setting": "MDR1", "result": 0.71, "unit": "×10⁻⁶ cm/s"}, {"measurement": "Papp B→A at 120 min, 5 μM", "setting": "MDR1", "result": 49.5, "unit": "×10⁻⁶ cm/s"}]}, {"smiles": "Cc1nnc(-c2ccc(-c3ccc(O[C@@H]4C[C@H]5CCC[C@H](N5)[C@@H]4F)nn3)c(O)c2)o1", "note": "(single isomer, unassigned) [94-ENT1]", "values": [{"measurement": "EC50", "setting": "mHTT protein", "result": "101 to 500", "unit": "nM"}, {"measurement": "MDCK-MDR1: % Recov A-B", "setting": "[1]", "result": 104, "unit": "%"}, {"measurement": "MDCK-MDR1: % Recov B-A", "setting": "[1]", "result": 70, "unit": "%"}, {"measurement": "efflux ratio at 120 min, 5 μM", "setting": "MDR1", "result": 7}, {"measurement": "Papp A→B at 120 min, 5 μM", "setting": "MDR1", "result": 6.2, "unit": "×10⁻⁶ cm/s"}, {"measurement": "Papp B→A at 120 min, 5 μM", "setting": "MDR1", "result": 41.2, "unit": "×10⁻⁶ cm/s"}]}, {"smiles": "Cc1nc(-c2ccc(-c3ccc(O[C@@H]4C[C@H]5CCC[C@H](N5)[C@@H]4F)nn3)c(O)c2)cs1", "note": "(single isomer, unassigned) [71-ENT2]", "values": [{"measurement": "EC50", "setting": "mHTT protein", "result": "16 to 50", "unit": "nM"}, {"measurement": "MDCK-MDR1: % Recov A-B", "setting": "[1]", "result": 50, "unit": "%"}, {"measurement": "MDCK-MDR1: % Recov B-A", "setting": "[1]", "result": 67, "unit": "%"}, {"measurement": "efflux ratio at 120 min, 5 μM", "setting": "MDR1", "result": 6}, {"measurement": "Papp A→B at 120 min, 5 μM", "setting": "MDR1", "result": 5.78, "unit": "×10⁻⁶ cm/s"}, {"measurement": "Papp B→A at 120 min, 5 μM", "setting": "MDR1", "result": 33.1, "unit": "×10⁻⁶ cm/s"}]}, {"smiles": "N#Cc1ccc(-c2ccc(O[C@H]3C[C@@H]4CCC[C@@H](N4)[C@H]3F)nn2)c(O)c1", "note": "(single isomer, unassigned) [110-ENT2]", "values": [{"measurement": "EC50", "setting": "mHTT protein", "result": "501 to 10000", "unit": "nM"}, {"measurement": "MDCK-MDR1: % Recov A-B", "setting": "[1]", "result": 95, "unit": "%"}, {"measurement": "MDCK-MDR1: % Recov B-A", "setting": "[1]", "result": 97, "unit": "%"}, {"measurement": "efflux ratio at 120 min, 5 μM", "setting": "MDR1", "result": 8}, {"measurement": "Papp A→B at 120 min, 5 μM", "setting": "MDR1", "result": 7.44, "unit": "×10⁻⁶ cm/s"}, {"measurement": "Papp B→A at 120 min, 5 μM", "setting": "MDR1", "result": 56.9, "unit": "×10⁻⁶ cm/s"}]}]}
